Data: PubChem BioAssay AID248 (DTP/NCI, 2004)
Values joined by “and” are separate entries in the source; they are usually repeats but may differ in a detail not shown here. Equal values may be shown once. Inconclusive results and toxic doses are left out. No stated cut-off is given here; in the data, active means T/C of 150% or more; inactive means T/C below 125%.

Tested on: L1210 leukemia ip in BDF1 mice, survival T/C
Assay: NCI In Vivo Anticancer Drug Screen. Data for tumor model L1210 Leukemia (intraperitoneal) in B6D2F1 (BDF1) mice
Conditions: endpoint: mean survival time, higher = longer survival
Method in brief: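 In this screen, tumor-bearing mice given compound are compared to those given vehicle, and their survival values are reported as a treated-to-control quotient.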

[1] = dose: 100.0 mg/kg/injection, schedule: Q01DX009 (ip), vehicle: carboxymethylcellulose (CMC)
[2] = dose: 200.0 mg/kg/injection, schedule: Q01DX009 (ip), vehicle: carboxymethylcellulose (CMC)
[3] = dose: 400.0 mg/kg/injection, schedule: Q01DX009 (ip), vehicle: carboxymethylcellulose (CMC)
[4] = dose: 100.0 mg/kg/injection, schedule: Q01DX009 (ip), vehicle: Klucel (hydroxypropylcellulose) (HPC)
[5] = dose: 100.0 mg/kg/injection, schedule: Q04DX003 (ip), vehicle: Klucel (hydroxypropylcellulose) (HPC)
[6] = dose: 200.0 mg/kg/injection, schedule: Q01DX009 (ip), vehicle: Klucel (hydroxypropylcellulose) (HPC)
[7] = dose: 200.0 mg/kg/injection, schedule: Q04DX003 (ip), vehicle: Klucel (hydroxypropylcellulose) (HPC)
[8] = dose: 100.0 mg/kg/injection, schedule: Q04DX003 (ip), vehicle: saline
[9] = dose: 200.0 mg/kg/injection, schedule: Q04DX003 (ip), vehicle: saline
[10] = dose: 400.0 mg/kg/injection, schedule: Q04DX003 (ip), vehicle: saline
[11] = dose: 100.0 mg/kg/injection, schedule: Q01DX009 (ip), vehicle: saline with Tween-80
[12] = dose: 200.0 mg/kg/injection, schedule: Q01DX009 (ip), vehicle: saline with Tween-80
[13] = dose: 100.0 mg/kg/injection, schedule: Q01DX001 (ip), vehicle: saline
[14] = dose: 200.0 mg/kg/injection, schedule: Q01DX001 (ip), vehicle: saline
[15] = dose: 400.0 mg/kg/injection, schedule: Q01DX001 (ip), vehicle: saline
[16] = dose: 25.0 mg/kg/injection, schedule: Q01DX009 (ip), vehicle: Klucel (hydroxypropylcellulose) (HPC)
[17] = dose: 50.0 mg/kg/injection, schedule: Q01DX009 (ip), vehicle: Klucel (hydroxypropylcellulose) (HPC)

Measured: T/C

COc1ccc(/C=C2\N=C(c3ccc([N+](=O)[O-])cc3)OC2=O)cc1Br
inactive: dose: 100.0 mg/kg/injection, schedule: Q04DX002 (ip), vehicle: saline 101 % of control | dose: 200.0 mg/kg/injection, schedule: Q04DX002 (ip), vehicle: saline 104 % of control | dose: 400.0 mg/kg/injection, schedule: Q04DX002 (ip), vehicle: saline 115 % of control

CC[P+](CCCCCCCCC[P+](CC)(Cc1ccccc1)c1ccccc1)(Cc1ccccc1)c1ccccc1 (stereo not given)
inactive: dose: 5.0 mg/kg/injection, schedule: Q01DX001 (ip), vehicle: saline 105 % of control

CC(C)OC(=O)NCc1cccs1
inactive: [1] 104 % of control | [2] 101 % of control | [3] 104 % of control

CC(=O)NC1C(OC(C)=O)OC2COCOC2C1OC(C)=O (stereo not given)
inactive: dose: 100.0 mg/kg/injection, schedule: Q01DX001 (ip), vehicle: saline with Tween-80 97 % of control | dose: 200.0 mg/kg/injection, schedule: Q01DX001 (ip), vehicle: saline with Tween-80 97 % of control | dose: 400.0 mg/kg/injection, schedule: Q01DX001 (ip), vehicle: saline with Tween-80 105 % of control

COc1cc(C(=O)O)c(O)c(OC)c1OC
inactive: [4] 96 % of control | [5] 98 % of control | [6] 106 % of control | [7] 101 % of control | dose: 400.0 mg/kg/injection, schedule: Q01DX009 (ip), vehicle: Klucel (hydroxypropylcellulose) (HPC) 101 % of control | dose: 400.0 mg/kg/injection, schedule: Q04DX003 (ip), vehicle: Klucel (hydroxypropylcellulose) (HPC) 104 % of control

C[N+](C)(C)CC[N+](C)(C)C
inactive: dose: 100.0 mg/kg/injection, schedule: Q01DX009 (ip), vehicle: saline 108 % of control | [8] 100 % of control | dose: 200.0 mg/kg/injection, schedule: Q01DX009 (ip), vehicle: saline 106 % of control | [9] 110 % of control | dose: 400.0 mg/kg/injection, schedule: Q01DX009 (ip), vehicle: saline 100 % of control | [10] 97 % of control

Cc1cccc(-c2nc(N)nc(N)n2)c1C
inactive: dose: 50.0 mg/kg/injection, schedule: Q01DX009 (ip), vehicle: saline with Tween-80 97 % of control | [11] 101 % of control | [12] 101 % of control

O=C(Nc1ccccc1C(F)(F)F)Nc1cccc2c(O)cccc12
inactive: dose: 100.0 mg/kg/injection, schedule: Q01DX001 (ip), vehicle: carboxymethylcellulose (CMC) 93 % of control and 100 % of control | [1] 100 % of control and 91 % of control | dose: 100.0 mg/kg/injection, schedule: Q04DX002 (ip), vehicle: carboxymethylcellulose (CMC) 86 % of control | dose: 100.0 mg/kg/injection, schedule: Q04DX003 (ip), vehicle: carboxymethylcellulose (CMC) 88 % of control and 91 % of control | dose: 200.0 mg/kg/injection, schedule: Q01DX001 (ip), vehicle: carboxymethylcellulose (CMC) 93 % of control and 89 % of control | [2] 100 % of control and 103 % of control | dose: 200.0 mg/kg/injection, schedule: Q04DX002 (ip), vehicle: carboxymethylcellulose (CMC) 96 % of control and 89 % of control | dose: 200.0 mg/kg/injection, schedule: Q04DX003 (ip), vehicle: carboxymethylcellulose (CMC) 97 % of control and 88 % of control | dose: 400.0 mg/kg/injection, schedule: Q01DX001 (ip), vehicle: carboxymethylcellulose (CMC) 94 % of control and 90 % of control | [3] 96 % of control and 91 % of control | dose: 400.0 mg/kg/injection, schedule: Q04DX002 (ip), vehicle: carboxymethylcellulose (CMC) 89 % of control and 90 % of control | dose: 400.0 mg/kg/injection, schedule: Q04DX003 (ip), vehicle: carboxymethylcellulose (CMC) 97 % of control and 88 % of control

OC(c1ccccc1)(c1ccccc1)c1ccccc1Cl
inactive: [8] 94 % of control | [9] 91 % of control | [10] 91 % of control

Oc1ccc(C2CCCCCC2)cc1
inactive: dose: 12.5 mg/kg/injection, schedule: Q01DX001 (ip), vehicle: carboxymethylcellulose (CMC) 97 % of control | dose: 25.0 mg/kg/injection, schedule: Q01DX001 (ip), vehicle: carboxymethylcellulose (CMC) 103 % of control

CC(C)(C)OC(=O)CC(O)c1ccccc1 (stereo not given)
inactive: dose: 50.0 mg/kg/injection, schedule: Q01DX001 (ip), vehicle: saline 94 % of control | [13] 102 % of control | [14] 105 % of control | [15] 102 % of control

CC(=O)N1CCCC2CCc3c([nH]c4ccccc34)C21 (stereo not given)
inactive: dose: 75.0 mg/kg/injection, schedule: Q01DX001 (ip), vehicle: other 110 % of control | dose: 150.0 mg/kg/injection, schedule: Q01DX001 (ip), vehicle: other 119 % of control | dose: 300.0 mg/kg/injection, schedule: Q01DX001 (ip), vehicle: other 110 % of control

CCOc1ccc(C(=O)CCN2CCOCC2)cc1
inactive: [13] 100 % of control | [14] 118 % of control

O=P(NCCCl)(NCCCl)c1ccccc1
inactive: dose: 100.0 mg/kg/injection, schedule: Q04DX002 (ip), vehicle: Klucel (hydroxypropylcellulose) (HPC) 118 % of control | dose: 200.0 mg/kg/injection, schedule: Q04DX002 (ip), vehicle: Klucel (hydroxypropylcellulose) (HPC) 100 % of control | dose: 400.0 mg/kg/injection, schedule: Q04DX002 (ip), vehicle: Klucel (hydroxypropylcellulose) (HPC) 96 % of control

CC(=O)c1ccc(N=C2C=CC(=O)O2)cc1
inactive: [11] 104 % of control | [12] 105 % of control | dose: 400.0 mg/kg/injection, schedule: Q01DX009 (ip), vehicle: saline with Tween-80 100 % of control

CN1C(=O)CCS(=O)(=O)C1c1ccc(Cl)c(Cl)c1 (stereo not given)
inactive: dose: 12.5 mg/kg/injection, schedule: Q01DX009 (ip), vehicle: Klucel (hydroxypropylcellulose) (HPC) 101 % of control | [16] 114 % of control | dose: 25.0 mg/kg/injection, schedule: Q04DX003 (ip), vehicle: Klucel (hydroxypropylcellulose) (HPC) 105 % of control | [17] 103 % of control | dose: 50.0 mg/kg/injection, schedule: Q04DX003 (ip), vehicle: Klucel (hydroxypropylcellulose) (HPC) 100 % of control | [4] 110 % of control | [5] 105 % of control | [6] 104 % of control | [7] 108 % of control

O=C(Nc1cccc(Cl)c1Cl)Sc1ccccc1O
inactive: [4] 104 % of control | [6] 97 % of control

NC1CCC(O)CC1 (stereo not given)
inactive: [13] 110 % of control | [14] 97 % of control | [15] 97 % of control

Nc1nc(N)nc(Nc2ccc([As]=O)cc2)n1 (stereo not given)
inactive: [16] 112 % of control | [17] 117 % of control | [4] 102 % of control

CN=NC(C)(c1ccc(Cl)cc1)C(C)(N=NC)c1ccc(Cl)cc1 (stereo not given)
inactive: dose: 17.5 mg/kg/injection, schedule: Q01DX009 (ip), vehicle: Klucel (hydroxypropylcellulose) (HPC) 92 % of control | dose: 35.0 mg/kg/injection, schedule: Q01DX009 (ip), vehicle: Klucel (hydroxypropylcellulose) (HPC) 103 % of control | dose: 70.0 mg/kg/injection, schedule: Q01DX009 (ip), vehicle: Klucel (hydroxypropylcellulose) (HPC) 100 % of control

O=C(O)C12CCCC(CCC1)C2=O
inactive: dose: 75.0 mg/kg/injection, schedule: Q01DX001 (ip), vehicle: saline 100 % of control | dose: 150.0 mg/kg/injection, schedule: Q01DX001 (ip), vehicle: saline 102 % of control | dose: 300.0 mg/kg/injection, schedule: Q01DX001 (ip), vehicle: saline 100 % of control
